Experimental data from patent publication US20030130169A1, “Methods of treating drug-resistant bacterial infections” (priority 2001, published 2003).

What was measured:
[1] = test system: RepA-LacZ (SLI-SLIII interaction of RepA mRNA), plasmid pMU1550; test: RepA-LacZ reporter gene assay; type: cell-based; details: E. coli JP3923 harboring pMU1550, various concentrations, OD600 ~0.6
Experimental: Small molecules were tested for their ability to imitate the function of RNA I by binding to the RepA mRNA and disrupting the Stem Loop I-Stem Loop III (SLI-SLIII) loop-loop interaction, thus mimicking plasmid incompatibility. Aminoglycosides and their derivatives were selected for testing because of their ability to tightly bind RNA from a variety of sources, particularly regions of distorted RNA secondary structure, such as RNA loops or bulges.
To assess their ability to disrupt the SLI-SLIII interaction in vivo, small molecules were assessed using a RepA-LacZ reporter gene assay. To conduct the assay, the gene encoding β-galactosidase was fused to the RepA gene, incorporated into commercially available plasmid pMU1550. E. coli JP3923 harboring plasmid pMU1550 was grown in minimal media (MM)/Tm([…]) in the presence of various concentrations of the small molecules under evaluation. After reaching the appropriate optical density (˜OD600=0.6), Miller units of b-galactosidase were quantitated as per the standard protocol (see Miller, J. H, Experiments in Molecular Genetics, 1972, p352-355, Cold Spring Harbor Laboratory, Cold Spring Harbor, N.Y.). Any perturbation causing lower RepA production leads to a lowering of the β-galactosidase units upon quantitation A positive control utilizing a plasmid (pMU662) that overexpresses RNAII (containing the SLI-SLIII stretch) gave the expected high b-galactosidase signal. Each experiment was performed on at least three separate occasions.
In a second control, erythromycin A, a general translation inhibitor, was tested using the reporter gene assay.
These experiments gave the expected results.

[2] = test system: IncB plasmid pMU2403 encoding β-lactamase; test: Assessment of plasmid elimination (master/replica plating); type: cell-based, E. coli strain JP4821; details: 25 μg/mL apramycin
Experimental: The anti-plasmid effect of apramycin, paromomycin I and kanamycin B was assessed. In general, plasmid-containing E. coli resistant to ampicillin were cultured using growth media containing subinhibitory (sublethal) amounts of each of these compounds. The bacteria were allowed to reproduce for a defined number of generations, after which the bacteria were plated out onto agar plates containing the tested small molecules. Replicas were then made onto plates containing the tested small molecules and the antibiotic, ampicillin. Colonies that appeared on the master plate, but not the replicas had been rendered sensitive to ampicillin
In particular, E. coli strain JP4821 containing the commercially available IncB plasmid pMU2403, which encodes for β-lactamase, was grown in MM in the presence of 25 μg/mL apramycin for a defined number of generations. Typically, samples of the bacteria were plated out onto LB/Apra^25 plates after 10-12 generations, and replica plates were then made onto LB/Apra^25/Amp^100 plates. Percentage of plasmid lost was calculated by counting the number of colonies successfully replicated and dividing by the total number of colonies on the master plate; the entire plasmid loss assay was performed on two separate occasions. On average, greater than 200 master plate colonies were used for each of these evaluations. Evaluations of paromomycin I and kanamycin B were performed in an analogous fashion, with paromomycin I at 15 mg/mL, and kanamycin B at 10 mg/mL.
To confirm that antibiotic sensitivity was due to plasmid loss, plasmid preparations were performed to isolate plasmid from the non-replicating colonies on the master plate, and from control colonies. No plasmids were isolated from the non-replicating colonies, while plasmid was successfully isolated from the control colonies that did replicate.

[3] = molecular target: SLI-SLIII loop-loop complex; test: In vitro SLI-SLIII loop-loop disruption assay (displacement of fluorescein-labeled SLIII from bead-bound SLI); type: binding; details: biotinylated SLI on streptavidin agarose bead, fluorescein-labeled SLIII displaced; read-out: Kd for disrupting the SLI-SLIII interaction
Experimental: To further investigate the mechanism by which apramycin causes plasmid elimination, the SLI-SLIII loop-loop interaction was reconstituted in vitro. SLI was biotinylated and bound to a streptavidin coated agarose bead. Fluorescein-labeled SLIII was added to form the loop-loop complex. This complex was then incubated with varous concentrations of apramycin and the amount of SLIII displaced by apramycin was assessed by quantitation of the fluorescence in solution. These experiments indicate that apramycin is disrupting the SLI-SLIII interaction with a Kd of 1 μM.

SLI = test: Direct binding to fluorescein-labeled RNA (fluorescence titration)
Experimental: (§1) The direct binding of apramycin to SLI and SLIII was then assessed in vitro using fluorescently-labeled RNAs.
(§2) For these experiments, RNA oligonucleotides were obtained from Dharmacon Research (Lafayette, Colo.), and were deprotected according to the manufacturer's protocol. The sequence of FI-SLI is FI.C.G.CCA.UAA.GCG.ACA.GCU.UGU.GGC. The sequence of FI-SLIII is FI.UAU.UUU.UCC.UCG.AAC.UUG.GCG.GAA.CGC.AGA.AAA.AUA. All fluorescence measurements were performed on an ISS PC1 spectrofluorometer with slitwidths and lamp current optimized for sufficient signal counts at the given RNA-fluorescein concentration. Deprotected RNA oligonucleotides were made up to 1 mM in 50 mM Tris-HCl, pH 7.3, and folded by heating to 90° C. for 3 min, then slowly cooling to rt. To assess the binding of apramycin to the fluorescently-labeled RNAs, […] of the folded RNA was transferred to a 4×10×48 mm fluorescence cuvette (Starna Cells) and allowed to equilibrate to 37° C. in the spectrofluorometer's sample chamber for 15 minutes. Apramycin was added in […] portions from a stock solution, and a minimum of 5 minutes was allotted for equilibration. Three fluorescence spectra were acquired at each apramycin concentration. The spectra were taken with a 490 nm excitation wavelength and emission intensity was measured from 510-540 nm at an interval of one nanometer. At each point along the spectrum, an average of 3 data points was taken to give an averaged intensity at that integral wavelength. In processing the spectra, the point at 523 nm was chosen as a representative wavelength to monitor change in intensity over a range of apramycin concentrations. The 523 nm data points from each of the three averaged spectra were averaged at each apramycin concentration to give a composite average of nine measurements at 523 nm at each apramycin concentration. All intensity measurements are reported uncorrected for dilutions, as volume change over the course of the experiment is minimal.

SLIII = test: as above; details: various apramycin concentrations
Experimental: as §1, §2

[4] = test system: plasmids differing in copy numbers, size and nature of replication; details: cited from earlier work

NC[C@H]1O[C@H](O[C@H]2[C@H](O)[C@@H](O[C@H]3O[C@H](CO)[C@@H](O)[C@H](N)[C@H]3O)[C@H](N)C[C@@H]2N)[C@H](N)[C@@H](O)[C@@H]1O [kanamycin B]
reporter gene signal (Miller units of β-galactosidase) [1]: dose dependent decrease

NC[C@@H]1O[C@H](O[C@H]2[C@@H](O)[C@H](O[C@@H]3[C@@H](O)[C@H](N)C[C@H](N)[C@H]3O[C@H]3O[C@H](CO)[C@@H](O)[C@H](O)[C@H]3N)O[C@@H]2CO)[C@H](N)[C@@H](O)[C@@H]1O [paromomycin I]
reporter gene signal (Miller units of β-galactosidase) [1]: dose dependent decrease

CN[C@@H]1[C@@H](O[C@H]2O[C@H](CO)[C@@H](N)[C@H](O)[C@H]2O)OC2C[C@@H](N)[C@@H](O[C@H]3[C@H](O)[C@@H](O)[C@H](N)C[C@@H]3N)OC2[C@@H]1O (stereo partly drawn) [apramycin]
plasmid elimination ([2]; after 220 generations): virtually complete elimination
plasmid elimination ([2]; overall conclusion): virtually complete elimination of plasmid
sensitization of bacteria to ampicillin ([2]; replica plates LB/Apra25/Amp100): sensitizes the bacteria to ampicillin
reporter gene signal (Miller units of β-galactosidase) [1]: dose dependent decrease
Kd [3]: 1000 nM
Kd (SLI; 50 mM Tris-HCl pH 7.3, 37° C., read-out: Kd of apramycin-SLI interaction): 200 nM
change in fluorescent signal of labeled SLI (SLI; various apramycin concentrations): significant decrease
change in fluorescence of labeled SLIII (SLIII): no significant change in fluorescence

N[C@@H]1[C@H]2CN(c3nc4c(cc3F)c(=O)c(C(=O)O)cn4-c3ccc(F)cc3F)C[C@@H]12 [Trovafloxacin]
plasmid curing effect [4]: plasmid curing

CC[C@H]1OC(=O)[C@H](C)[C@@H](O[C@H]2C[C@@](C)(OC)[C@@H](O)[C@H](C)O2)[C@H](C)[C@@H](O[C@@H]2O[C@H](C)C[C@H](N(C)C)[C@H]2O)[C@](C)(O)C[C@@H](C)C(=O)[C@H](C)[C@@H](O)[C@]1(C)O [Erythromycin A, erythromycin A]
reporter gene signal (Miller units of β-galactosidase) [1]: no effect
